Measurements reported in patent US5445937A, “Detection of Alzheimer's disease and other diseases using an improved photoaffinity labeling method” (The University of Kentucky Research Foundation, priority 1993, dated 1995).
Like-named read-outs stand apart in the source and are kept apart here.

How the values were obtained:
[1] = molecular target: T1, 42 kD protein found in the cerebral spinal fluid from Alzheimer's disease patients (Homo sapiens, UniProt P15104); experiment: Photoaffinity labeling (photoinsertion) of the 42 kD protein in cerebral spinal fluid from Alzheimer's disease patients; format: binding
T1 construct: 42 kD protein found in the cerebral spinal fluid from Alzheimer's disease patients; from tissue; host or cells: cerebral spinal fluid of Alzheimer's disease patients
Procedure: Each assay was performed on 15 μl of cerebral spinal fluid. Although the amount of cerebral spinal fluid tested remained constant for each experiment, the protein concentration of each sample varied to some degree.
Each cerebral spinal fluid sample was photolabeled with [^32 P]8N3 ATP to identify the 42,000 Mr protein. The cerebral spinal fluid sample was comprised of cerebral spinal fluid, buffer, and water. The photoprobes used in each experiment were prepared by the inventor according to the procedures disclosed by Potter and Haley in Meth. in Enzymol., 91:613-633 (1983). Probes were also available commercially through ICN Radiochemicals 2727 Campus Drive, Irvine, Calif. 92715.
(§1) In each experiment, photoprobe was added to the cerebral spinal fluid sample and vortexed for 6 seconds. Each treated sample was then allowed to mix for an additional 24 seconds at room temperature before exposure to ultraviolet (UV) light.
(§2) The treated samples were placed on ice and exposed to UV light for 45 seconds. The UV light source, a hand-held UV lamp with an intensity of 6200 μW/cm^2, was positioned 1 cm from the sample. The UV activation of the photoprobe labeled samples was always conducted at 0° C.
(§3) Each sample was fractionated by 10% SDS-PAGE, run over a period of 21/2 to 3 hours, with constant amperage of 35 mA and an initial voltage of 140 volts. Since all of the proteins were very well separated on a 10% gel, a gradient was not necessary.
(§4) The quantity of protein, as well as the amount of the radioactivity incorporated into each protein, was quantified by densitometric scans of the exposed X-ray film, or of the stained gel, or by liquid scintillation spectrometry of the protein band excised from the gel. Significance was determined by analysis of variance at a rho level below […].
(§5) 2. Purified GS and the 42 kD protein found in the cerebral spinal fluid from Alzheimer's disease patients had the same approximate saturation and Kd values for binding ATP, 8-azido-ATP and 2-azido-ATP. […] Therefore, both GS and the 42 kD protein in the cerebral spinal fluid from Alzheimer's disease patients had the same nucleotide binding properties.

[2] = molecular target: T2, Purified GS (glutamine synthetase) (Homo sapiens, UniProt P15104); experiment: Photoaffinity labeling (photoinsertion) of purified glutamine synthetase; format: binding, sheep
T2 construct: purified from sheep brain; purchased Sigma; host or cells: sheep brain
Procedure: as §1, §2, §3, §4
(§6) 1. Purified GS (purchased from Sigma, purified from sheep brain) comigrated on SDS-PAGE identically with the 42,000 Mr protein in the cerebral spinal fluid from Alzheimer's disease patients.
as §5
(§7) Purified glutamine synthetase from sheep brain was photolabeled by the above-described method, but under various ionic conditions.

glutamine synthetase = experiment: Enzymatic activity of glutamine synthetase; format: biochemical, sheep; conditions: 10 μM
[3] = system: T3, Purified GS (glutamine synthetase); experiment: Photoaffinity labeling (photoinsertion) of purified glutamine synthetase; format: binding, sheep; conditions: purified GS
T3 construct: purified from sheep brain; purchased Sigma; host or cells: sheep brain
Procedure: as §1, §2, §3, §4, §6, §5, §7

T1 sequence (P15104 2-373 limits assumed): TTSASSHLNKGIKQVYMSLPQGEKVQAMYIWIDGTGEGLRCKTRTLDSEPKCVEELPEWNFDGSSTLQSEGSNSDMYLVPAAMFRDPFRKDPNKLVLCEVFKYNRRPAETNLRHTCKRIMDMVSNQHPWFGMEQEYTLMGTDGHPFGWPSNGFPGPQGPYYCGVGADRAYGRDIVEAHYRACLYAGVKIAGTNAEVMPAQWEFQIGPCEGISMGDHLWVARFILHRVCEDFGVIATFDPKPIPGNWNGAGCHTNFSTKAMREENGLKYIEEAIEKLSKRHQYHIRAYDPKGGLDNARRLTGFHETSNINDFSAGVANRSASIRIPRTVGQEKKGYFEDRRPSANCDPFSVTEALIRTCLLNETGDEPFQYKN
T2 sequence (P15104 whole entry): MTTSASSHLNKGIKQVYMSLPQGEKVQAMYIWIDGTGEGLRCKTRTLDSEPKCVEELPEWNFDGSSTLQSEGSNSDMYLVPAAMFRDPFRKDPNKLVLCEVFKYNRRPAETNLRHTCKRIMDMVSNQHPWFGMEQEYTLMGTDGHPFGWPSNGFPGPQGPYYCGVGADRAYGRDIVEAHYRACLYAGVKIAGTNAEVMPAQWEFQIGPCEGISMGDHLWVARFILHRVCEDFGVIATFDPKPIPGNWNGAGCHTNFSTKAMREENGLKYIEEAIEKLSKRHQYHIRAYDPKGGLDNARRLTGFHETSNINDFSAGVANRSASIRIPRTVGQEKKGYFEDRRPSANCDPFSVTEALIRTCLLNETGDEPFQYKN
T3 sequence (P15104 whole entry): as above

With `Nc1ncnc2c1ncn2[C@@H]1O[C@H](COP(=O)(O)OP(=O)(O)OP(=O)(O)O)[C@@H](O)[C@H]1O` [ATP, adenosine triphosphate] the “effect on photolabeling with 8- or 2-azido-ATP” value ([1]; 42 kD protein in AD CSF, competition by natural nucleotide) was “decreased the photolabeling” and the “effect on photolabeling with 8- or 2-azido-ATP” value ([2]; purified GS, competition by natural nucleotide) was “decreased the photolabeling”.

Work on `[N-]=[N+]=Nc1nc2c(N)ncnc2n1[C@@H]1O[C@H](COP(=O)(O)OP(=O)(O)OP(=O)(O)O)[C@@H](O)[C@H]1O` [8-azido-ATP, 8-azidoadenosine 5'-triphosphate] yielded a Kd [1] of ~10 µM, a saturation of photoinsertion ([1]; 42 kD protein in AD CSF) of 40 to 50 µM and a saturation of photoinsertion ([2]; purified GS) of 40 to 50 µM.

With `[Cl][Mn][Cl]` [MnCl2] the “effect on enzymatic activity of glutamine synthetase” value (glutamine synthetase) was “increases the enzymatic activity” and the “effect on photolabeling of GS by 8N3 ATP photolabel” value ([2]; purified sheep brain GS, 10 μM, FIG. 5) was “increases dramatically”.

For `[N-]=[N+]=Nc1nc(N)c2ncn([C@@H]3O[C@H](COP(=O)(O)OP(=O)(O)OP(=O)(O)O)[C@@H](O)[C@H]3O)c2n1` [2-azido-ATP, 2-azidoadenosine 5'-triphosphate], the “amount of photo-incorporation on a mole to mole basis relative to [γ32P]8N3 ATP” value ([1]; 42 kD protein in AD CSF) was “greater”, the saturation of photoinsertion ([1]; 42 kD protein in AD CSF) was 40 to 50 µM and the Kd ([1]; 42 kD protein in AD CSF, approximate Kd from photoinsertion, read-out: half maximal photoinsertion) was ~10 µM. The “amount of photo-incorporation on a mole to mole basis relative to [γ32P]8N3 ATP” value [3] was “greater” and the saturation of photoinsertion ([2]; purified GS) was 40 to 50 µM.

For `O=C(O)O` [ammonium bicarbonate], the “enhancement of binding/photolabeling by [32P]2N3 ATP” value ([1]; 42 kD CSF protein, ligand added at 100 mM) was “about 5 fold” and the “enhancement of binding/photolabeling by [32P]2N3 ATP” value ([2]; purified GS, ligand added at 100 mM) was “about 5 fold”.
